Type in all cases: in vivo
The test system of data set [1] is Wheat kernels. The data set is described as follows: Germination rate of wheat in combination with fungicides (greenhouse). The settings on record: fungicides 25 g/dt in NMP, compound A1 0.1 mg/ha, soil, greenhouse 15° C., 70% humidity, 7 days, solvent control 69. Here is the method: The test is performed under greenhouse conditions.
Wheat kernels were treated with different fungicides (25 g/dt in NMP) or a mixture of compound A1 (0.1 mg/ha in 1:1, acetonitril/water) with the fungicides. Kernels were planted in soil and grown in the greenhouse at 15° C., 70% humidity, 14 h day/light cycle for 7 days.
Controls are performed in the same conditions in the absence of active ingredients. Assessment consisted of counting seedlings per treatment.

Data set [2] deals with maize. The data set is described as follows: Germination rate of maize in combination with insecticides (greenhouse). The following applies: clothianidin 1.25, imidacloprid 0.75 mg ai/corn, compound A1 1 mg/ha, greenhouse 10° C., 80% humidity, 9 days, solvent control 17. Here is the method:
(§1) The test was performed under greenhouse conditions. Kernels were treated with different insecticides (ready formulated) or a mixture of compound A1 (1 mg/ha in 1:1, acetonitril/water) with the insecticides. Kernels were planted in soil and grown in the greenhouse at 20° C., 80% humidity, 12 h day/light cycle for 4 days (wheat) and at 10° C., 80% humidity, 12 h day/light cycle for 9 days (maize). Controls are performed in the same conditions in the absence of active ingredients. Assessment consisted of counting seedlings per treatment.

The subject of data set [3] is wheat. Nature of the data set: Germination rate of wheat in combination with insecticides (greenhouse). The settings on record: thiacloprid 1.00 mg ai/corn, compound A1 1 mg/ha, greenhouse 20° C., 80% humidity, 4 days, solvent control 64. Here is the method:
as §1

SMILES strings stand for the structures.

As to `N#Cc1c[nH]cc1-c1cccc2c1OC(F)(F)O2` [fludioxonil], the “% germination” value in data set [1] turned out to be 23%.

With `CC(C)(C)C(O)(CCc1ccc(Cl)cc1)Cn1cncn1` (stereo not drawn) [tebuconazole], the “% germination” value in data set [1] came out at 21%. For `CN/C(=N\[N+](=O)[O-])NCc1cnc(Cl)s1` [clothianidin], in data set [2], the “germination % maize 9 d” value is reported as 8%. As to `Cc1nn(C)c(F)c1C(=O)Nc1ccccc1C(C)CC(C)C` (stereo not drawn) [Penflufen], the “% germination” value in data set [1] came to 47%. Turning to `N#C/N=C1\SCCN1Cc1ccc(Cl)nc1` [thiacloprid], the “germination % wheat 4 d” value in data set [3] was found to be 9%. Consider `CO/N=C(/C1=NOCCO1)c1ccccc1Oc1ncnc(Oc2ccccc2Cl)c1F` [fluoxastrobin], for which the “% germination” value in data set [1] worked out at 4%.

The values are drawn from patent US20130345058A1, “USE OF LIPOCHITO-OLIGOSACCHARIDE COMPOUNDS FOR SAFEGUARDING SEED SAFETY OF TREATED SEEDS” (priority 2011, published 2013).
